Measured values reported in US20240390377A1, “COMPOSITION FOR THE PREVENTION OR TREATMENT OF NEURODEGENERATIVE OR MOTOR NEURON DISEASES COMPRISING HALOFUGINONE AS AN ACTIVE INGREDIENT” (CURAMYS CO., LTD., priority 2022, published 2024).

Columns and labels:
[1] = system: G93A mutant SOD1 transgenic mice; assay: Real-time qRT-PCR analysis of lumbar spinal cord in ALS animal model; type: in vivo, mouse
Method: As a control group, non-transgenic mice were injected intraperitoneally (i.p.) with vehicle (DMSO) in the same manner for the same period of time.
Specifically, total RNA was isolated from C2C12 cells in Example 1, fibroblasts in Example 5, and the lumbar spinal cord of mice in Example 6 using the FavorPrep™ Tri-RNA Reagent (Favorgen). The lumbar spinal cord was isolated from the mouse in Example 6 and stored frozen at −80° C. until the experiment. The concentration of total RNA was measured at 260 nm absorbance using a spectrophotometer (NanoDrop Spectrophotometer ND-2000, Thermo Scientific). cDNA was synthesized from 1 μg of total RNA using the ReverTra Ace-α™ (Toyobo) according to the manufacturers protocol. Quantitative RT-PCR was performed using the SYBR Green ExcelTaq™ 2× Fast Q-PCR Master Mix (TQ1200, Smobio) on a thermocycler (CFX Connect Real-Time PCR Detection System, BIO-RAD) with the primers listed in Table 3 below. Fluorescence data were analyzed with Bio-Rad CFX Manager 3.1 software, and control versus relative mRNA expression was calculated by the 2AT) method. Experiments were performed four times on all samples. All primers were designed using Primer3 online software, and GAPDH was used as a control group.
In addition, to investigate the motor neuron source of the spinal cord, motor neurons of the lumbar spinal cord were observed and counted in the same manner as described in Example 9 (FIG. 9d), and real-time qRT-PCR and Western blot analysis were performed in the same manner as described in Example 11 and Example 12 to quantitatively analyze the expression of ChAT mRNA (FIG. 9e) and ChAT protein (FIG. 9f).
Specifically, Halofuginone was administered to G93A mutant SOD1 mice in the same manner as described in <Example 6>, and lumbar spinal cord was isolated after 120 days of age of mice were sacrificed. Then, mRNA expression of inflammation-related factors and neuronal cell death-related factors of CNS was confirmed by performing real-time qRT-PCT analysis in the same manner as in Example 11 (FIG. 11a), and protein expression of neuronal cell death-related factors was confirmed by performing Western blot analysis in the same manner as in Example 12 (FIG. 11b). Since the role (inflammatory or anti-inflammatory effect) differs according to the M1 or M2 subtype of microglia, the expression of M1 marker (iNOS, CD86), M2 marker (arginase 1) and pro-inflammatory factors (IFN-a, TNF-a, IL-1b, and IL-6) were confirmed as factors related to inflammation of CNS. In addition, the expression of caspase-3, bax, and bcl-2 was confirmed as factors related to neuronal apoptosis.

[2] = system: G93A mutant SOD1 mouse-derived fibroblasts; assay: Western blot analysis of ALS animal model-derived fibroblasts; type: cell-based; conditions: low or high concentration halofuginone for 24 hours; elevation vs Non-TG fibroblasts (FIG. 5b)
Source text: Specifically, primary fibroblasts were isolated from skeletal muscle of 120-day-old non-transformed or G93A mutant SOD1 transgenic mice of Example 4. The excised tissue was placed on 100-mm culture dishes containing HBSS (Hanks' Balanced Salt Solution; Gibco, cat #14175095) and penicillin-streptomycin (Cat #15070-063, Thermo Fisher Scientific) without calcium and magnesium. Muscle tissue was cut on ice blocks. Then, the tissue was cut into 1 mm pieces and enzymatically reacted with 0.2% IV type collagenase (Sigma) at 37° C. for 1 hour. The enzymatic reaction was stopped by the addition of 10 ml of FBS (Gibco). The tissue mixture was centrifuged at 1,800 rpm at 4° C. for 5 min and resuspended with DMEM medium (Welgene) with 10% FBS. Cells were filtered through a 70 μm cell filter (BD Biosciences, San Jose, CA) and incubated in 0.2% gelatin-coated plates with DMEM medium with 10% FBS, 1% penicillin-streptomycin. Then, halofuginone was treated in the same manner as described in Example 1.
Specifically, the lumbar spinal cord or knee joint of the mouse of Example 6 was separated and immediately frozen at −80° C. Each lumbar spinal cord or knee joint was then homogenized and chemically treated to obtain cells. The chemically treated cells, the C2C12 cells of Example 1 or the fibroblasts of Example 5 were dissolved in a RIPA buffer (Thermo, MA, USA) with a protease inhibitor and a phosphatase inhibitor (Roche, IN, USA) and incubated on ice for 30 minutes. After centrifugation of the lysate at 13,000 rpm at 4° C. for 20 min, insoluble substances were removed. Protein concentrations were measured by BCA analysis (Pierce Biotechnology). Equal volumes of cell lysate were loaded onto SDS-PAGE gels for electrophoresis, and transferred onto nitrocellulose membranes (Amersham Protran 0.2 um NC, Amersham Pharmacia Biotech, Piscataway, NJ, USA). The membranes were then blocked with 5% (w/v) skimmilk in 1×TBST for 1 h at room temperature. […] The membranes were then washed, briefly incubated with the SuperSignal West Pico Plus Chemical Substructure (Pierce Biotechnology) according to the manufacturer's procedure, and quantified with an image analyzer (Amersham Pharmacia Biotech, Piscataway, NJ, USA). β-actin was used as an internal control group. The concentration measurement of protein intensity was quantified using Image J (National Institutes of Health). […]

O=C(C[C@H]1NCCC[C@@H]1O)Cn1cnc2cc(Br)c(Cl)cc2c1=O (racemic) [halofuginone]
mRNA level of ChAT in lumbar spinal cord ([1]; 120-day-old mice, compared to DMSO Non-TG group (FIG. 9e)): preserved similarly
increase in mRNA levels of M1 markers (iNOS, CD86) in lumbar spinal cord ([1]; 120 days of age (FIG. 11a)): inhibited
increase in mRNA levels of proinflammatory factors (IFN-a, TNF-a, IL-1b, IL-6) in lumbar spinal cord ([1]; 120 days of age (FIG. 11a)): inhibited
mRNA level of bcl-2 in lumbar spinal cord ([1]; 120 days of age, decreased in DMSO TG group (FIG. 11a)): preserved
elevated Col-I protein expression [2]: attenuated
elevated TGF-β protein expression [2]: attenuated
elevated p-Smad2/Smad2 ratio [2]: attenuated
elevated α-SMA protein expression [2]: attenuated
